In paper PMC11863921 (BMC Biology, 2025):
Entries after “also recorded” stand apart in the source; their conditions may differ.

Biological target: T1, AsolRXFP/LGR3 (Acanthaster planci, UniProt A0A8B7XXQ8)
T1 sequence (A0A8B7XXQ8 1-847): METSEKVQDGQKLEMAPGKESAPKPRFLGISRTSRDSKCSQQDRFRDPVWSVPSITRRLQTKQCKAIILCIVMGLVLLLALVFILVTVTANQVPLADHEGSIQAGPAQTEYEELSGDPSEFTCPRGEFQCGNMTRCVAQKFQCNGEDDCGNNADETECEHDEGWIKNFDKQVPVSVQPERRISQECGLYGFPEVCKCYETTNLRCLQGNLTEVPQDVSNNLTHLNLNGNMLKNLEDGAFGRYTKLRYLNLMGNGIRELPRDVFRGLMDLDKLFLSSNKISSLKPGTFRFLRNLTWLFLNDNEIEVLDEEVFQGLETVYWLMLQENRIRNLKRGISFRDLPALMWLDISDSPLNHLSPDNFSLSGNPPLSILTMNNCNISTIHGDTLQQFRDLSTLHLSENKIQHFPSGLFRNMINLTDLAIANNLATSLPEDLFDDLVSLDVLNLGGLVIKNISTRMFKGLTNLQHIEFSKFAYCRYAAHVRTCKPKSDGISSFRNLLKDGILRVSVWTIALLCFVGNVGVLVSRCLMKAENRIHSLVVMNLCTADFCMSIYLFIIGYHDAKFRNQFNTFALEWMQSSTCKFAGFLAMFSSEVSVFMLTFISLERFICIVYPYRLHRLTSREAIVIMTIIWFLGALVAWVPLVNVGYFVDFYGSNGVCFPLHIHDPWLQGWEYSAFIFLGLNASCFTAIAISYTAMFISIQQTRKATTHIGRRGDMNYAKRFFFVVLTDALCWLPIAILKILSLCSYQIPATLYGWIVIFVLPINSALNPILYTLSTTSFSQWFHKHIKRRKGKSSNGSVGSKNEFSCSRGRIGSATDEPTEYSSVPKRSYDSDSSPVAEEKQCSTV
Experiment: CRE reporter gene assay in CHO cells stably expressing AsolRXFP/LGR3
Assay type: cell-based, A. cf. solaris
Conditions: for cAMP activity / CRE reporter gene activation: increasing concentrations
Experimental: Human embryonic kidney (HEK) 293T cells were grown in complete Dulbecco’s modified Eagle medium (DMEM; Gibco) and Chinese hamster ovary (CHO) cells in complete DMEM/F12 (Gibco). Media was supplemented with 10% fetal bovine serum, 1% penicillin/streptomycin, and 1% L‐glutamine (complete media; All from Gibco). HEK-293T cells were transfected with LipofectAMINE 2000 (Invitrogen) and CHO cells with CHO TransIT and CHO-Mojo (Mirus), both according to the manufacturer’s instructions.
CHO and HEK293T cells stably expressing AsolRXFP/LGR3 were generated by lentiviral transduction. HEK293T cells were plated in 10 cm dishes for transfection with pLenti X1-Ef1α-COT-RXFP-like 2-IRES-GFP along with the lentiviral packaging and envelope plasmids pMDL, pRSV‐Rev, and pCMV‐VSV‐G, using Lipofectamine 2000. The following day, media containing lentivirus was harvested and filtered through a 0.45 μm syringe filter. Fresh CHO and HEK293T cells in 10 cm plates were transduced by replacing the cell culture media with the filtered media containing lentivirus, mixed with 4 μg/mL hexadimethrine bromide (Polybrene) to increase transduction efficiency. Three rounds of transduction were performed over 32 h, before cells were allowed to recover for three days in complete media. Transduced cells were sorted from non-transduced cells using the GFP reporter by fluorescence-activated cell sorting (FACS), using a Becton Dickinson FACSAria III as previously described. Single, live cells with low GFP expression were selected to represent low AsolRXFP/LGR3 expression and were subsequently grown to confluency in a T175 flask and cryopreserved.
The ability of the A. cf. solaris receptors to respond to A. cf. solaris RGP1 and RGP2 peptides was tested using a pCRE β-galactosidase reporter gene assay in CHO cells stably expressing AsolRXFP/LGR3 or HEK-293T cells transfected with AsolRXFP/LGR4 (long) or AsolRXFP/LGR4 (short), as described in detail previously. Importantly, the pCRE β-galactosidase reporter gene assay measures both Gs and Gq activation downstream of GPCR activation by monitoring CREB-mediated gene transcription. Cells were seeded in 96 well plates and were left to grow overnight at 37 °C in an incubator with 5% CO2. The next day the cells were transfected with different amounts of the pCRE reporter gene DNA [57] and/or pcDNA3.1 receptor constructs, as described above, and were left to grow overnight in an incubator. Triplicate wells in each plate were transfected with the equivalent amount of pCRE reporter gene DNA and pcDNA3.1 without a receptor-encoding insert as the background CRE activity control. The next day cells were exposed in triplicate wells to increasing concentrations of peptides diluted in media for 6 h at 37 °C in an incubator. Triplicate parallel wells contained 5 µM forskolin and blank media as positive and negative controls, respectively. At the end of the incubation period, the media was aspirated, and the plate was stored at − 80 °C until development. Plates were thawed for the development of β-galactosidase activity, as described previously, with absorbance being read at 570 nm on an Epoch 2 microplate reader. The data were analyzed as the percentage of the response induced by 5 µM forskolin and pooled followed by fitting to a three-parameter sigmoidal dose–response curve using GraphPad Prism 10. Experiments were performed at least three times with triplicate determinations in each assay (Additional file 17: Dataset S10).

“Acanthaster cf. solaris Relaxin-like gonad-stimulating peptide 2 [AsolRGP2]” was tested, and the “cAMP activity / CRE reporter gene activation” value (CHO-AsolRXFP/LGR3 cells) was “only at high concentrations; also recorded: small but significant response but no clear dose–response” and the “relative potency/efficacy as ligand for AsolRXFP/LGR3” value (compared with RGP1) was “much lower than that of RGP1”.
“Acanthaster cf. solaris Relaxin-like gonad-stimulating peptide 1 [AsolRGP1]” was tested, and the “efficacy (Emax)” value (CHO-AsolRXFP/LGR3 cells, 5 µM forskolin = reference, n = 6) was 38.6 ± 6.9 % forskolin response and the “cAMP activity / CRE reporter gene activation” value (CHO-AsolRXFP/LGR3 cells) was “concentration-dependent cAMP activity; also recorded: dose-dependent increase in CRE reporter gene activation”.
